Assay results as given in ChEMBL document CHEMBL2390944, “Discovery and optimization of arylsulfonyl 3-(pyridin-2-yloxy)anilines as novel GPR119 agonists” (Bioorg Med Chem Lett, 2013).

Assays:
in vitro = details: human, liver microsomes
[1] = Metabolic stability in mouse liver microsomes assessed as compound turnover after 30 mins; assay type: ADME, Microsome; details: read-out: Drug metabolism
in vivo = details: rat, iv, 0.5 mg/kg

SMILES: Cc1ccc(S(=O)(=O)Nc2cccc(Oc3nc(C)cc(C)c3C#N)c2)cc1
- metabolised at 0.5 h (in vitro): 72%
- metabolised at 0.5 h [1]: 100%

SMILES: N#Cc1c(C(F)(F)F)cc(C2CC2)nc1Oc1cccc(NS(=O)(=O)c2ccc(Cl)cc2)c1
- clearance (in vivo): 3.17 mL/min/kg
- metabolised at 0.5 h (in vitro): 13%
